Measured values taken from patent US10139410B2, “Protein-protein interaction as biomarkers” (H. LEE MOFFITT CANCER CENTER AND RESEARCH INSTITUTE, INC., priority 2011, dated 2018).

Columns and labels:
EGFR-GRB2 interactions = system: EGFR-GRB2 interactions; set-up: species or system nude mice; conditions: mouse, in vivo
Description: 5. […] Record start time • b. Incubation time should be 16-18 h

EGFR-GRB2 = type: in vivo, mice; conditions: H1650 (EGFR mutant) or H322 (EGFR wildtype) xenografts, with or without erlotinib, 18 days
Description: (§1) Tumor xenografts were established in mice with either H1650 (EGFR mutant) or H322 (EGFR wildtype), treated with or without erlotinib and allowed to grow for 18 days. Formalin-fixed, paraffin-embedded tumor tissue was analyzed by PLA for the interaction of EGFR-GRB2 (left) and EGFR-SHC1 (right). Nuclei are shown in blue, PLA signal is red and cytokeratin is green. For clarity, identical images are shown with and without cytokeratin staining for each tumor.
(§2) Tumor tissues from subcutaneous mouse models of lung cancer will be used. […] Mice have been selected for these experiments since they are most suitable for xenograft and […] studies of lung cancer, are readily available and not endangered, and can be safely maintained in the laboratory animal vivarium. CD-1 nu/nu mice mice will be purchased from approved vendors and housed in institutional animal facilities according to protocols set out by the American Association for Accreditation of Laboratory Animal Care. The inventor currently has active IACUC protocol for establishing subcutaneous tumor xenografts in mice. Both male and female mice of approximately six weeks of age will be used. Mice will be anesthetized in an induction chamber containing 3% isoflurane and 97% oxygen.

EGFR-SHC1 = type: in vivo, mice; conditions: H1650 (EGFR mutant) or H322 (EGFR wildtype) xenografts, with or without erlotinib, 18 days
Description: as §1, §2

phosphor-EGFRY1068 = assay: PLA for phosphorylated EGFR in cell lines (single antibody to phospho-EGFR Y1068); type: cell-based, human; conditions: PC9 cells, 3 hours of treatment
Description: 9. […] Record start time • b. Incubation time should be 16-18 h
11. […] Ensure complete coverage of tissue area.

[1] = system: EGFR binding of Grb2, Mig6, Sts1; assay: Affinity purification mass spectrometry (AP-MS) of EGFR interactions; type: cell-based, human; conditions: cells treated with erlotinib; data not shown
Source text: The present inventors have initiated a system wide and global analysis of the PPI driven by hyperactivated epidermal growth factor receptor (EGFR) resulting from somatic mutation in non-small cell lung cancer (NSCLC) (17-19). The inventors' approach has been to combine (i) affinity purification—mass spectrometry (AP-MS) and (ii) phosphotyrosine proteomics. The inventors use cell models that harbor mutant EGFR proteins and are highly sensitive to EGFR TKI. As the network of EGFR is highly dependent on cell context, this approach offers the best chance of recovering pertinent proteins and mechanisms, a potential flaw in using cells other than lung cancer cells driven by mutant EGFR. Tagged versions of EGFR are initially used to identify interactions and second round of AP-MS is performed to more fully construct the network (20, 21). The inventors simultaneously performed tyrosine phosphoproteomics—tyrosine phosphorylated (pTyr) peptides are enriched using an anti-phosphotyrosine antibody and then identified and quantified on an Orbitrap mass spectrometer using published methods (9). […]
EGFR inhibitors are predicted to disrupt signaling complexes on the EGFR protein. […] Changes in EGFR PPI will be determined using PLA on these tumor samples. Measurements of EGFR PPI using PLA will be analyzed from the pre-treatment sample and again on the post-treatment sample.

lung cancer cell lines = assay: Sensitivity of lung cancer cell lines to EGFR TKI; type: cell-based, human
EGFR = type: cell-based, human

C#Cc1cccc(Nc2ncnc3cc(OCCOC)c(OCCOC)cc23)c1 [erlotinib]
EGFR-GRB2 PLA signal in tumor (EGFR-GRB2 interactions): considerably reduced
proteins in complex with EGFR (PLA) (EGFR-GRB2 interactions): reductions in proteins in complex with EGFR
EGFR-GRB2 PLA signal in tumor tissue (EGFR-GRB2): markedly reduced
EGFR-SHC1 PLA signal in tumor tissue (EGFR-SHC1): markedly reduced
phosphorylation of EGFR by PLA (pEGFR Y1068), confirmed by immunoblot (phosphor-EGFRY1068): abolishes
EGFR binding partners by mass spectrometry [1]: no longer bound Grb2, Mig6 or Sts1
sensitivity to EGFR TKI (erlotinib) (lung cancer cell lines; A549, H23 and H460 cells): resistant
erlotinib sensitivity (lung cancer cell lines; H322 and H1648 cells): some degree of erlotinib sensitivity
sensitivity to EGFR TKI (erlotinib) (lung cancer cell lines; H1648, H322, H358 and H292 cells, wildtype EGFR): some degree of sensitivity
EGFR tyrosine phosphorylation (EGFR): inhibits
